Experimental data as given in US9062124B2, “GIP-based mixed agonists for treatment of metabolic disorders and obesity” (priority 2008, dated 2015).
Where two headings read alike, the source gives them in different places. Where a SMILES comes first, the peptide text is derived from it. Bridges are numbered along the chain shown (N, C = ends). Where no end group is shown, it is not given here. Side-chain parts run from the residue outwards. [ ]: non-standard residue; d: D form. The star is where a group is joined. Ac‑Cys(PEG 40 kDa) = Cys whose alpha-amino group is acetylated and whose side chain carries a 40 kDa PEG; PEG 40 kDa = PEG (40 kDa) covalently attached to Cys; Palmitoyl = CCCCCCCCCCCCCCCC(=O)*; Myristoyl = CCCCCCCCCCCCCC(=O)*; Aib = CC(C)(N)C(=O)O

Assays:
Type in all cases: cell-based
GLP-1 receptor = molecular target: T1, GLP-1 receptor (Homo sapiens, UniProt P43220); assay: cAMP synthesis functional assay (firefly luciferase reporter in HEK293 cells), GLP-1 receptor
T1 construct: expressed in transfected cells; host or cells: HEK293

glucagon receptor = molecular target: T2, glucagon receptor (Homo sapiens, UniProt P47871); assay: cAMP synthesis functional assay (firefly luciferase reporter in HEK293 cells), glucagon receptor
T2 construct: expressed in transfected cells; host or cells: HEK293

GIP receptor = molecular target: T3, GIP receptor (Homo sapiens, UniProt P48546); assay: cAMP synthesis functional assay (firefly luciferase reporter in HEK293 cells), GIP receptor
T3 construct: expressed in transfected cells; host or cells: HEK293
T3 sequence (P48546 22-466): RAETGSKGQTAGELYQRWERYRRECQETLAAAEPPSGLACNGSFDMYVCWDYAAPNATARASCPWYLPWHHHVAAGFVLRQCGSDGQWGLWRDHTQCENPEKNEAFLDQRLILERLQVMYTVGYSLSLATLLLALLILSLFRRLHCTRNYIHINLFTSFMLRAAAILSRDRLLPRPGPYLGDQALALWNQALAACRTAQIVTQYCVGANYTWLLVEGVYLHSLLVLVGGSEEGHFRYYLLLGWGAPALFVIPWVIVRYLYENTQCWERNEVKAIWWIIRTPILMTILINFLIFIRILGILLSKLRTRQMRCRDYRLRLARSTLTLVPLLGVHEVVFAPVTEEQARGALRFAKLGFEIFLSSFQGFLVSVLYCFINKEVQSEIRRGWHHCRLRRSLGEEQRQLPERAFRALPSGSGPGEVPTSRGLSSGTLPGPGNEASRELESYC

[1] = relative to the standard (Std.) EC50 of the same run
[2] = Table 4, relative to the native hormone
[3] = Table 1, relative to the native hormone of the indicated receptor

T2 sequence (P47871 26-477): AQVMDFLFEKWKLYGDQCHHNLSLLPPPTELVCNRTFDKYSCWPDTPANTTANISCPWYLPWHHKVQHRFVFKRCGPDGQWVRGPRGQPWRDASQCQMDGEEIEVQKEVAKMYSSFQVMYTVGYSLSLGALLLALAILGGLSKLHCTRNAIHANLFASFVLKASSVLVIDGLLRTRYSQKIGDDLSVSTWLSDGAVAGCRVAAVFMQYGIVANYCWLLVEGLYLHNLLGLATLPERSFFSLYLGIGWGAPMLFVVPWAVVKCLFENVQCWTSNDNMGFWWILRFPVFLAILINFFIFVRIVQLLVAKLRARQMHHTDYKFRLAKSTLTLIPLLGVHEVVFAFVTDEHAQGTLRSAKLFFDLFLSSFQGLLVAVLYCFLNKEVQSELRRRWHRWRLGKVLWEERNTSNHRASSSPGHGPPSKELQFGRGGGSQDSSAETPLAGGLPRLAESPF
T1 sequence (P43220 24-463, species assumed): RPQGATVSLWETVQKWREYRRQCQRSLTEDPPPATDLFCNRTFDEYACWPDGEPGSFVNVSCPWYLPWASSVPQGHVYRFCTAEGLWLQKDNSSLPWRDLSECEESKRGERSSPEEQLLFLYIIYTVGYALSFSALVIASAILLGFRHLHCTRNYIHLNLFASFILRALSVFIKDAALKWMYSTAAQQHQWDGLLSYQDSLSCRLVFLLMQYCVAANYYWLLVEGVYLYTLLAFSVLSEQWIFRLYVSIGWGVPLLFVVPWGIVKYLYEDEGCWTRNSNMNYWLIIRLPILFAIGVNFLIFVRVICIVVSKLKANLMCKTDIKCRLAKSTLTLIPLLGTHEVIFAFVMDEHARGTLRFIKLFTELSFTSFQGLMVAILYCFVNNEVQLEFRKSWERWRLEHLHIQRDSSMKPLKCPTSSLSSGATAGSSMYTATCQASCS

Molecule | GLP-1 Receptor relative activity (GLP-1 receptor; [1]) | Glucagon Receptor relative activity (glucagon receptor; [1]) | GIP Receptor relative activity (GIP receptor; [1]) | GLP-1 Receptor relative activity (GLP-1 receptor; [2]) | Glucagon Receptor relative activity (glucagon receptor; [2]) | GIP Receptor relative activity (GIP receptor; [2]) | also measured
CCCCCCCCCCCCCC(=O)NCCCC[C@H](NC(=O)[C@H](CO)NC(=O)[C@@H]1CCCN1C(=O)[C@@H]1CCCN1C(=O)[C@@H]1CCCN1C(=O)[C@H](C)NC(=O)CNC(=O)[C@H](CO)NC(=O)[C@H](CO)NC(=O)[C@@H]1CCCN1C(=O)CNC(=O)CNC(=O)[C@H](C)NC(=O)[C@H](CC(C)C)NC(=O)[C@H](CC(C)C)NC(=O)[C@H](Cc1c[nH]c2ccccc12)NC(=O)[C@H](CC(N)=O)NC(=O)[C@@H](NC(=O)[C@H](Cc1ccccc1)NC(=O)[C@H](CCC(=O)O)NC(=O)C(C)(C)NC(=O)[C@H](C)NC(=O)[C@H](C)NC(=O)[C@H](CCC(N)=O)NC(=O)[C@H](CCCCN)NC(=O)[C@H](CC(=O)O)NC(=O)[C@H](CC(C)C)NC(=O)[C@H](Cc1ccc(O)cc1)NC(=O)[C@@H](NC(=O)[C@H](CO)NC(=O)[C@H](Cc1ccc(O)cc1)NC(=O)[C@H](CC(=O)O)NC(=O)[C@H](CO)NC(=O)[C@@H](NC(=O)[C@H](Cc1ccccc1)NC(=O)[C@@H](NC(=O)CNC(=O)[C@H](CCC(=O)O)NC(=O)C(C)(C)NC(=O)[C@@H](N)Cc1ccc(O)cc1)[C@@H](C)O)[C@@H](C)O)[C@@H](C)CC)C(C)C)C(=O)N[C@@H](CS)C(N)=O [mt-339] | 66.30% | 0.28% | 230.00% |  |  |  | 
mt-376: acylated PEG-linked dimer, acylation at position 40 of each monomer (YXEGTFTSDYSIYLDKQAAXEFVNWLLAGGPSSGAPPPSKC; PEG-linked dimer, acylated at position 40; Mt-376; Homodimer; Xaa is Aib; 14 Carbon fatty acyl group covelently bound to Lysine; C-terminal amidation; Cys residue covalently attached to 20 kDa PEG which is in turn covalently attached to a Cys residue of a second peptide having the same structure) |  |  |  | 126.82% | 0.57% | 62.63% | EC50 (glucagon receptor; read-out: Glucagon Receptor EC50, Table 4): 13.5 nM
mt-225: pegylated monomer with lactam bridge between Glu16 and Lys20, PEG attached via dipeptide spacer (Y[Aib]QGTFTSDYSIYLDEQAAKEFVNWLLAGGPSSGAPPPSK([Ala-Ac‑Cys(PEG 40 kDa)])-NH2; lactam 16-20) |  |  |  | 29.59% | 1.99% | 0.90% | 
mt-281 (Y[Aib]QGTFTSDYSIYLDKQAA[Aib]EFVC(PEG 40 kDa)WLLAG-NH2) | 5.13% | 16.65% | 6.68% |  |  |  | EC50 (GLP-1 receptor; read-out: GLP-1 Receptor EC50, cAMP luciferase reporter assay as in Example 16): 0.216 nM; EC50 (GIP receptor; read-out: GIP Receptor EC50, cAMP luciferase reporter assay as in Example 16): 0.4 nM
CCCCCCCCCCCCCC(=O)NCCCC[C@H](NC(=O)[C@H](CC(=O)O)NC(=O)[C@H](CO)NC(=O)[C@@H](NC(=O)[C@H](Cc1ccccc1)NC(=O)[C@@H](NC(=O)CNC(=O)[C@H](CCC(=O)O)NC(=O)C(C)(C)NC(=O)[C@@H](N)Cc1ccc(O)cc1)[C@@H](C)O)[C@@H](C)O)C(=O)N[C@@H](CO)C(=O)N[C@H](C(=O)N[C@@H](Cc1ccc(O)cc1)C(=O)N[C@@H](CC(C)C)C(=O)N[C@@H](CC(=O)O)C(=O)N[C@@H](CCCCN)C(=O)N[C@@H](CCC(N)=O)C(=O)N[C@@H](C)C(=O)N[C@@H](C)C(=O)NC(C)(C)C(=O)N[C@@H](CCC(=O)O)C(=O)N[C@@H](Cc1ccccc1)C(=O)N[C@H](C(=O)N[C@@H](CC(N)=O)C(=O)N[C@@H](Cc1c[nH]c2ccccc12)C(=O)N[C@@H](CC(C)C)C(=O)N[C@@H](CC(C)C)C(=O)N[C@@H](C)C(=O)NCC(N)=O)C(C)C)[C@@H](C)CC [mt-282] (H-Y[Aib]EGTFTSDK(Myristoyl)SIYLDKQAA[Aib]EFVNWLLAG-NH2; N-terminus assumed) | 44.03% | 1.18% | 76.69% |  |  |  | EC50 (GLP-1 receptor; GLP-1 Receptor EC50, cAMP luciferase reporter assay as in Example 16): 0.0134 nM; EC50 (glucagon receptor; Glucagon Receptor EC50, cAMP luciferase reporter assay as in Example 16): 2.44 nM
CC[C@H](C)[C@H](NC(=O)[C@H](Cc1ccccc1)NC(=O)[C@H](CCC(=O)O)NC(=O)[C@@H]1CCCCNC(=O)CC[C@H](NC(=O)[C@H](CC(=O)O)NC(=O)[C@H](CC(C)C)NC(=O)[C@H](Cc2ccc(O)cc2)NC(=O)[C@H](CCCCN)NC(=O)[C@H](CO)NC(=O)[C@H](Cc2ccc(O)cc2)NC(=O)[C@H](CC(=O)O)NC(=O)[C@H](CO)NC(=O)[C@@H](NC(=O)[C@H](Cc2ccccc2)NC(=O)[C@@H](NC(=O)CNC(=O)[C@H](CCC(N)=O)NC(=O)[C@H](CO)NC(=O)[C@@H](N)Cc2c[nH]cn2)[C@@H](C)O)[C@@H](C)O)C(=O)N[C@@H]([C@@H](C)CC)C(=O)N[C@@H](Cc2c[nH]cn2)C(=O)N[C@@H](CCC(N)=O)C(=O)N1)C(=O)N[C@@H](C)C(=O)N[C@@H](Cc1c[nH]c2ccccc12)C(=O)N[C@@H](CC(C)C)C(=O)N[C@@H](CCSC)C(=O)N[C@@H](CC(N)=O)C(=O)N[C@H](C(N)=O)[C@@H](C)O [mt-61] |  |  |  |  |  |  | GLP-1 Receptor relative activity (GLP-1 receptor; [3]): 22.22%; EC50 (glucagon receptor; Glucagon Receptor EC50, nM, Table 1): 0.11 nM; Glucagon Receptor relative activity (glucagon receptor; [3]): 172.73%; GIP Receptor relative activity (GIP receptor; [3]): 0.83%
CC[C@H](C)[C@H](NC(=O)[C@H](CO)NC(=O)[C@H](Cc1ccc(O)cc1)NC(=O)[C@H](CC(=O)O)NC(=O)[C@H](CO)NC(=O)[C@@H](NC(=O)[C@H](Cc1ccccc1)NC(=O)[C@@H](NC(=O)CNC(=O)[C@H](CCC(N)=O)NC(=O)[C@H](CO)NC(=O)[C@@H](N)Cc1ccc(O)cc1)[C@@H](C)O)[C@@H](C)O)C(=O)N[C@@H](Cc1ccc(O)cc1)C(=O)N[C@@H](CC(C)C)C(=O)N[C@@H](CC(=O)O)C(=O)N[C@H]1CCC(=O)NCCCC[C@@H](C(=O)N[C@@H](CC(=O)O)C(=O)N[C@@H](Cc2ccccc2)C(=O)N[C@H](C(=O)N[C@@H](CC(N)=O)C(=O)N[C@@H](Cc2c[nH]c3ccccc23)C(=O)N[C@@H](CC(C)C)C(=O)N[C@@H](CC(C)C)C(=O)N[C@@H](C)C(=O)N[C@@H](CCC(N)=O)C(N)=O)C(C)C)NC(=O)[C@H](CCC(N)=O)NC(=O)[C@H](Cc2c[nH]cn2)NC(=O)[C@H]([C@@H](C)CC)NC1=O [mt-110] (H-YSQGTFTSDYSIYLDEIHQKDFVNWLLAQ-NH2; lactam 16-20; N-terminus assumed) |  |  |  |  |  |  | GLP-1 Receptor relative activity (GLP-1 receptor; [3]): 1.49%; Glucagon Receptor relative activity (glucagon receptor; [3]): 23.26%; GIP Receptor relative activity (GIP receptor; [3]): 9.62%
CCCCCCCCCCCCCCCC(=O)NCCCC[C@H](NC(=O)[C@H](CO)NC(=O)[C@@H]1CCCN1C(=O)[C@@H]1CCCN1C(=O)[C@@H]1CCCN1C(=O)[C@H](C)NC(=O)CNC(=O)[C@H](CO)NC(=O)[C@H](CO)NC(=O)[C@@H]1CCCN1C(=O)CNC(=O)CNC(=O)[C@H](C)NC(=O)[C@H](CC(C)C)NC(=O)[C@H](CC(C)C)NC(=O)[C@H](Cc1c[nH]c2ccccc12)NC(=O)[C@H](CC(N)=O)NC(=O)[C@@H](NC(=O)[C@H](Cc1ccccc1)NC(=O)[C@H](CCC(=O)O)NC(=O)C(C)(C)NC(=O)[C@H](C)NC(=O)[C@H](C)NC(=O)[C@H](CCC(N)=O)NC(=O)[C@H](CCCCN)NC(=O)[C@H](CC(=O)O)NC(=O)[C@H](CC(C)C)NC(=O)[C@H](Cc1ccc(O)cc1)NC(=O)[C@@H](NC(=O)[C@H](CO)NC(=O)[C@H](Cc1ccc(O)cc1)NC(=O)[C@H](CC(=O)O)NC(=O)[C@H](CO)NC(=O)[C@@H](NC(=O)[C@H](Cc1ccccc1)NC(=O)[C@@H](NC(=O)CNC(=O)[C@H](CCC(N)=O)NC(=O)C(C)(C)NC(=O)[C@@H](N)Cc1ccc(O)cc1)[C@@H](C)O)[C@@H](C)CC)[C@@H](C)CC)C(C)C)C(N)=O [mt-358] (H-Y[Aib]QGTFISDYSIYLDKQAA[Aib]EFVNWLLAGGPSSGAPPPSK(Palmitoyl)-NH2; N-terminus assumed) |  |  |  | 13.04% | 1266.00% | 305.62% | EC50 (GIP receptor; GIP Receptor EC50, nM, Table 4): 0.0045 nM
mt-227: pegylated monomer with lactam bridge between Glu16 and Lys20, PEG attached via dipeptide spacer (Y[Aib]QGTFTSDYSIYLDEQAAKEFVNWLLAGGPSSGAPPPSK([Arg-Ac‑Cys(PEG 40 kDa)])-NH2; lactam 16-20) |  |  |  | 36.25% | 1.27% | 1.29% | 
